Assay results taken from ChEMBL document CHEMBL1157539, “Thousands of chemical starting points for antimalarial lead identification” (Nature, 2010).

Test system: Plasmodium falciparum
Assay: GSK_TCMDC: Inhibition of Plasmodium falciparum 3D7 in whole erythrocytes, using parasite LDH activity as an index of growth.
Format: functional, organism-based
Conditions: Plasmodium falciparum, 3D7

| SMILES | XC50 [µM] |
| --- | --- |
| CC(C)(C)c1nn(-c2ccc(Cl)cc2)c2[nH]c(=O)c(CNCc3cccs3)cc12 | 0.759 |
| O=C(NCCCCCN1CCC(c2c[nH]c3ccccc23)CC1)Nc1cccc(I)c1 | 0.993 |
| COc1ccc(NC(=O)N2CCN(CCCCCNC(=O)/C=C/c3ccc(C(F)(F)F)cc3)CC2)cc1Cl | 0.859 |
| O=C(Nc1ccc(N2CCCN(Cc3cccc(F)c3)CC2)cc1)c1ccc(F)cc1 | 0.837 |
| COc1ccc2nccc([C@@H](O)CN3CCC(NCc4cc5ccc(Cl)cc5[nH]4)CC3)c2c1 | 0.121 |
| COc1cccc(C(=O)C2CC2CN2CC=C(c3c[nH]c4ccc(OC)nc34)CC2)c1 (stereo not drawn) | 0.526 |
| CCOc1ccccc1C(=O)Nc1cccc(-c2nc3ncccn3c2C)c1 | 0.846 |
| O=C(NNC(=O)c1ccc(CCN2CCC(c3nc(COCC(F)(F)F)c(-c4ccc(F)cc4)o3)CC2)cc1)Nc1ccc(Oc2ccccc2)cc1 | 0.708 |
| N=C(N)Nc1nc(-c2cccc(NCCCCCCCCON3C(N)=NC(N)=NC34CCCCC4)c2)cs1 | 0.226 |
| Clc1ccc(-c2cc3c(NCc4ccncc4)nccc3s2)cc1 | 0.852 |
| CCOc1cc(C(=O)NCCc2ccc(Cl)c(Cl)c2)ccc1-c1nc2cc(Cl)ccc2[nH]1 | 0.895 |
| CN1CCN(Cc2ccc(-c3cc4nccc(Nc5ccc(Oc6ccccc6)cc5)c4cc3Cl)o2)CC1 | 0.979 |
| COc1ccc2ncc(F)c(CCN3C[C@H](CNCc4cc(F)c5c(c4)NC(=O)CO5)[C@H](O)C3)c2n1 | 0.667 |
| CC(C)NCc1ccc(-c2cccc(-c3nc4cc(F)ccc4[nH]3)c2)cc1 | 0.405 |
| O=C(/C=C/c1ccc(Cl)c(Cl)c1)N1CCC(CN2CCC(c3c(-c4ccc(F)cc4)[nH]c4ccccc34)CC2)CC1 | 0.175 |
| O=C(Oc1ccc(C2CNCCc3c2cc(OC(=O)c2ccc(O)cc2)c(OC(=O)c2ccc(O)cc2)c3Cl)cc1)c1ccc(O)cc1 (stereo not drawn) | 0.983 |
| CCC(N)(C#Cc1ccc(-c2c(C)[nH]c(C)c(Br)c2=O)cc1)CC | 0.0415 |
| Cc1[nH]c2c(C)cc(NS(C)(=O)=O)cc2c1C1CCN(CC2CCN(C(=O)/C=C/c3ccc(Cl)c(Cl)c3)CC2)CC1 | 0.241 |
| O=S(=O)(c1cc(Cl)ccc1Cl)N1CCCCC(c2ccc(C(F)(F)F)cc2)=N1 | 0.998 |
| Cn1cccc1CCNCc1ccc(-c2cccc(-c3nc4ccccc4[nH]3)c2)cc1 | 1.21 |
| CCOC(=O)C1=C(C)NC(Cn2ccnc2)=C(C(=O)OCC)C1c1ccc(C(C)(C)C)cc1 (stereo not drawn) | 0.807 |
| CC[C@H]1CN2CC[C@H]1C[C@H]2[C@@H](O)c1cc(OCCCN(C)C)nc2ccc(OC)cc12 | 0.132 |
| N#Cc1ccc(C=Cc2nccc3c2[nH]c2ccccc23)cc1 | 0.643 |
| O=C(Nc1cccc(F)c1)NC1CCN(c2ccnc3cc(Cl)ccc23)C1 (stereo not drawn) | 0.189 |

| SMILES | XC50 [µM] |
| --- | --- |
| CSc1ccc(C=CC(=O)NC(=O)c2ccccc2O)cc1 | 0.289 |
| CCC1(C)CC(CCNCc2ccccc2O)(c2ccccc2OC)CCO1 (stereo not drawn) | 0.721 |
| CCc1ccc(NC(=O)c2ccc(CN3CCCN(CC4CCCCC4)CC3)cc2)cc1 | 0.711 |
| CCCNC(=O)C1Cc2c([nH]c3cc(Br)ccc23)C2(CCN(CCc3ccccc3)CC2)N1 (stereo not drawn) | 0.972 |
| CCCCNCc1ccc(OCc2cccc(COc3ccc(CNCCCC)cc3)c2)cc1 | 0.318 |
| CS(=O)(=O)Nc1ccc2[nH]cc(C3CCN(CC4CCN(C(=O)/C=C/c5ccc(Cl)c(Cl)c5)CC4)CC3)c2c1 | 0.716 |
| Cc1[nH]c(C)c(-c2ccc(OCc3ccc(F)cc3)cc2)c(=O)c1Cl | 0.566 |
| Nc1ccc2[nH]cc(C3CCN(CC4CCC(NC(=O)/C=C/c5ccccc5Cl)CC4)CC3)c2n1 (stereo not drawn) | 0.688 |
| CN1CCN(c2ccc(Nc3ncc(C#N)c(Nc4ccccc4C(N)=O)n3)cc2)CC1 | 0.0394 |
| Cc1cc(=NN=Cc2ccc(F)cc2)c2ccc(C(F)(F)F)cc2[nH]1 | 0.816 |
| COc1ccccc1N=C1SC(=Cc2cn(CC(=O)N3CCCc4ccccc43)c3ccccc23)C(=O)N1C1CCCCC1 | 0.0289 |
| CC(CN(C)C)C(=O)Nc1cccc(-c2cccc(-c3nc4ccccc4[nH]3)c2)c1 (stereo not drawn) | 1.06 |
| O=C(Nc1cccc(-c2ccc(-c3nc4cc(F)ccc4[nH]3)cc2)c1)c1cccnc1 | 0.612 |
| CCN(CC)CCOc1ccc(C(O)(C#CC(O)(c2ccc(OCCN(CC)CC)cc2)c2ccc([N+](=O)[O-])cc2)c2ccc([N+](=O)[O-])cc2)cc1 (stereo not drawn) | 1.73 |
| Cc1cccc(CN2CCCN(Cc3ccc(C(=O)Nc4ccc(C)c(F)c4)cc3)CC2)c1 | 1.06 |
| CC(C)N(CCOc1ccc2c(c1)N(C(=O)Nc1cc(Br)cc(C(F)(F)F)c1)CC2)C(C)C | 0.108 |
| COc1ccc(NC(=O)[C@H](CC(C)C)Nc2cc(C)nc(NCCOc3ccccc3)n2)cc1 | 0.8 |
| CCn1cc(CN2CCCC(C(=O)Nc3ccc(-c4nc5ccccc5[nH]4)cc3)C2)c(C)n1 (stereo not drawn) | 0.802 |
| Cc1noc(C)c1-c1ccc2c(Nc3ccccc3C(C)(C)C)c(C(=O)NCc3ccc(OC(C)C)cc3)cnc2c1 | 0.908 |
| CN(C)CCNC(=O)N1CCCN(c2ncnc3cc(-c4ccc(Cl)cc4)sc23)CC1 | 1.02 |
| O=C(/C=C/c1ccc(Cl)c(Cl)c1)N1CCC2CC(N3CCC(c4c[nH]c5ccccc45)CC3)CCC2C1 (stereo not drawn) | 0.171 |
| CCOC(=O)c1cc2c(CCN3C(=O)c4ccccc4C3=O)cn(C)c2cc1-c1ccncc1 | 0.583 |
| COc1cccc(N(CCCN2C(=O)c3cccc4cccc(c34)C2=O)C(=O)c2ccccc2C)c1 | 0.795 |
| OCC1CCN(Cc2cccc(-c3ccc(-c4nc5cc(F)ccc5[nH]4)cc3)c2)CC1 | 0.72 |

| SMILES | XC50 [µM] |
| --- | --- |
| CCc1cc2c3c(N)nc(N)nc3ccc2n1CC | 0.0103 |
| CNC(=O)c1cnc(Nc2ccc(OCC(O)CN(C)C)cc2)nc1Nc1cccc(Br)c1 (stereo not drawn) | 0.121 |
| Oc1ccc(CCCNc2nc(NCc3cccc4ccccc34)nc(NC3CCNCC3)n2)cc1 | 1.13 |
| Clc1cc2c(Nc3ccc(Oc4ccccc4)cc3)ccnc2cc1-c1ccc(CNCCN2CCOCC2)o1 | 0.707 |
| CC1CCCCC1N(C)C1CCN(CCCNC(=O)C=Cc2cccc(C(F)(F)F)c2)CC1 (stereo not drawn) | 0.772 |
| COc1ccc2nccc(N/N=C/c3cccc([N+](=O)[O-])c3)c2c1 | 0.398 |
| COc1ccc(-c2cccc(CNCc3ccc(F)cc3)c2)cc1S(=O)(=O)NCCN1CCCC1 | 1.85 |
| O=C(NC1CCC(CN2CCC(c3c[nH]c4ccccc34)CC2)CC1)c1cc(-c2ccc(F)cc2F)ccc1O (stereo not drawn) | 0.356 |
| CC(C)(C)OC(=O)NCCc1cccc(-c2c[nH]c3ncc(-c4cccc(NS(C)(=O)=O)c4)cc23)c1 | 0.684 |
| Cc1cc(NCCC(=O)Nc2ccccc2)nc(NCC2CCCCC2)n1 | 0.841 |
| O=C(Cn1c(CCc2cccc(F)c2F)nc(=O)c2cccnc21)N(Cc1ccc(-c2ccc(C(F)(F)F)cc2)cc1)C1CCN(C2CCSCC2)CC1 | 0.23 |
| CS(=O)(=O)c1ccc2c(c1)CCN(CCC1CCC(NC(=O)C(=Cc3cccc(C#N)c3)c3ccc(-c4ccccc4)cc3)CC1)CC2 (stereo not drawn) | 0.839 |
| CC(C)c1ccc(NC(=O)c2ccc(C(=O)NCC3CCN(CC4CCCCC4)CC3)cc2)cc1 | 0.899 |
| FC(F)(F)c1ccc2[nH]c(-c3ccc(-c4ccc(CNCCN5CCNCC5)cc4)s3)nc2c1 | 0.91 |
| CC[C@H](C)CNC(=O)c1ccc(-c2cccc(CN3CCC(N4CCCC4)CC3)c2)nc1 | 0.787 |
| COc1ccc(-c2cccc(NC(=O)c3cccc(C#N)c3)c2)cc1CN1CCC(O)CC1 | 0.99 |
| O=C(Nc1ccc(N2CCCN(Cc3cccc(F)c3)CC2)cc1)c1ccccc1 | 0.961 |
| CN(C)CCCOc1cccc(NC(=O)Nc2ccc(Cl)c(Cl)c2)c1 | 0.956 |
| COc1ccc(C(=O)Nc2ccc(-c3nc4cc(C)ccc4[nH]3)cc2)cc1OC | 0.761 |
| CN(C)Cc1cccc(-c2cc3c(-c4cnn(C)c4)c(Cl)cnc3[nH]2)c1 | 0.905 |
| O=C(Nc1cccc(CN2CCCN(Cc3ccc4c(c3)OCO4)CC2)c1)c1ccc(Cl)c(Cl)c1 | 0.893 |
| CCN1CCC(N(Cc2ccc(-c3ccc(C(F)(F)F)cc3)cc2)C(=O)Cn2c(CCc3cccc(F)c3F)cc(=O)c3ccc(OCc4ccccc4)cc32)CC1 | 0.368 |
| Cc1ccc2[nH]c(-c3ccccc3Nc3ccnc4cc(-c5nccs5)ccc34)nc2c1 | 0.19 |
| OC(c1ccccc1)C1CN(CCc2ccccc2)CCC1(O)c1ccccc1 (stereo not drawn) | 1.04 |

| SMILES | XC50 [µM] |
| --- | --- |
| CN(CCN1CCC(c2c[nH]c3ccccc23)CC1)c1ccc(-c2nc3cc(Cl)c(Cl)cc3[nH]2)cc1 | 0.119 |
| CC(Cc1ccc(Oc2ccc(Cl)cc2)cc1)NCC(O)c1cccc(Cl)c1 (stereo not drawn) | 0.739 |
| CC(=O)N(Cc1ccccc1-c1cccc(CNCc2ccc3c(c2)OCO3)c1)C1CCN(Cc2ccccc2)CC1 | 1.05 |
| CCC(NC[C@@H](O)[C@H](Cc1ccccc1)NC(=O)c1cc(C2CCCC2)cc(N2CCCC2=O)c1)c1cccc(Cl)c1 (stereo partly drawn) | 0.0352 |
| FC(F)(F)COc1ccc2ccccc2c1CCNCCCCNCCc1c(OCC(F)(F)F)ccc2ccccc12 | 0.426 |
| Cc1cc(N/N=C/c2cccc([N+](=O)[O-])c2)c2ccc(F)cc2n1 | 0.69 |
| COc1ccc(OCCCCON2C(=N)N=C(N)NC2(C)C)cc1 | 0.0032 |
| Cc1nc(NCCCn2ccnc2)cc(-c2cncc(-c3ccc(OC(F)(F)F)cc3)c2)n1 | 0.616 |
| CCc1cn2c3c(cc(C(=O)N[C@@H](Cc4ccccc4)[C@H](O)CNCc4cccc(C)c4)cc13)N(C)S(=O)(=O)CC2 | 0.246 |
| COc1cc2ncnc(Nc3ccc(Br)c(Cl)c3)c2cc1OC | 0.718 |
| CCN(CC)CCN(Cc1ccc(-c2ccc(C(F)(F)F)cc2)cc1)C(=O)Cn1c(CCc2ccc(F)c(F)c2F)nc(=O)c2ccccc21 | 0.795 |
| Fc1ccc2[nH]c(-c3ccc(-c4ccc(CNCCN5CCNCC5)cc4)cc3)nc2c1 | 0.85 |
| COc1cccc(C(=O)NC(c2ccccc2OC)c2cc(Cl)c3cccnc3c2O)c1 (stereo not drawn) | 1.19 |
| COCCNCc1ccc(-c2cccc(CN(C(=O)CCC3CCCC3)C3CCN(Cc4ccccc4)CC3)c2)cc1 | 0.938 |
| CC(=NNC(S)=NC(C)(C)C)c1ccccn1 | 0.158 |
| CCn1ccc2c3c(N)nc(N)nc3ccc21 | 0.313 |
| Nc1c2c(nc3ccc(NC(=O)CCCc4ccccc4)cc13)CCCC2 | 0.429 |
| Cc1[nH]c2ccccc2c1C1=CCN(CCCCC2(C)C(=O)Nc3cccc(F)c32)CC1 (stereo not drawn) | 0.364 |
| CS(=O)(=O)Cc1ccc(Nc2nccc(-c3c(-c4cccc(NC(=O)c5c(F)cccc5F)c4)nn4ccccc34)n2)cc1 | 0.15 |
| O=C(/C=C/c1ccc(Cl)c(Cl)c1)N1CCC(CCN2CCC(c3c[nH]c4ccccc34)CC2)CC1 | 0.602 |
| Cc1cc(NC(=O)c2sc3ccccc3c2O)no1 | 0.809 |
